The source of these data is patent US9974771B2 (priority 2016, dated 2018).

Read-outs that look alike come from different tables or passages of the source. A value given as a limit tells only on which side of the number the result lay.

Data set [1] concerns LC3-II. The class given is cell-based, mouse.
In data set [2] the test system is PrP^Sc in Atg5-KO ScN2a cells (strain 22L). The data set is classed as cell-based, mouse.
The test system of data set [3] is PrP^Sc in persistently prion (strain 22L) infected ScN2a cells. The data set is classed as cell-based, mouse.
For data set [4], the system named is PrP^Sc in persistently prion (strain 22L) infected ScCAD5 cells. The class given is cell-based, mouse. To be noted: AR-12 1-5 μM, 72 hours, ScCAD5 22L; FIG. 3A.
The subject of data set [5] is PrP^Sc in ScMEFs infected with prion strains 22L, Me7 or RML. The data set is classed as cell-based, mouse. Conditions: AR-12 3 μM, 72 hours, ScMEF strains 22L, FIG. 4A.
Data set [6] has as its system LC3-II. The data set is classed as cell-based, mouse. The source holds these as a separate data set.

With “bafilomycin A1 [BA1, reference compound]”, the LC3-II levels entry in the data set with LC3-II [1] is “highest expression level of LC3-II”.
Consider `NCCCC[C@H](N)C(=O)Nc1ccc(-n2nc(C(F)(F)F)cc2-c2ccc3c(ccc4ccccc43)c2)cc1` [AR-14], for which the “reduction of PrP^Sc (+PK)” value is reported as “about 50%” in data set [2]; 100% in data set [3] (AR-14 2 μM, 72 hours, wild-type ScN2a cells, FIG. 8C); 100% in data set [3] (AR-14 at a concentration of 2, 3 days (72 hours), ScN2a 22L, FIG. 5A). The “XTT toxicity at concentrations used” value in the data set with ScN2a cells was “non-toxic concentrations”. Moreover, in data set [3] (AR-14 tested at 0.5, 0.75 and 1.0 μM, 72 hours, ScN2a 22L, FIG. 5C), the “concentration at which already effective in reducing PrP^Sc” value came out at 0.75 µM. Also, the “LC3-II induction, comparison of cell lines” value with LC3-II [1] was “lowest induction was found in CAD5 cells”. For the same molecule, in the data set on LC3-II [1], the LC3-II levels result is “time dependent and pronounced increase in LC3-II levels”.
On to `NCC(=O)Nc1ccc(-n2nc(C(F)(F)F)cc2-c2ccc3c(ccc4ccccc43)c2)cc1` [AR-12, 2-amino-N-(4-(5-(phenanthren-2-yl)-3-(trifluoromethyl)-1H-pyrazol-1-yl)phenyl)acetamide], for which the “XTT toxicity at concentrations used” value with ScMEF cells, in the data set with ScCAD5 cells and in the data set on ScN2a cells was “non-toxic concentrations” throughout. Moreover, the “reduction of PrP^Sc (+PK)” value in data set [2] is “about 50%”; in [3] (AR-12 3 μM, 3 days (72 hours), ScN2a 22L, vs DMSO, FIG. 2A) it was 100%; in data set [3] (AR-12 3 μM, 72 hours, wild-type ScN2a cells, FIG. 8B), no less than 90%. The “PrP^Sc levels (+PK)” value in data set [4] was “reduced, although slightly less than in ScN2a cells”. In addition, in [5], the “PrP^Sc (+PK)” value is recorded as “strongly reduced”. Further, in the data set with LC3-II [6], the LC3-II induction result was “about 2 fold”. Also, the “LC3-II induction, comparison of cell lines” value in the data set on LC3-II [1] was “lowest induction was found in CAD5 cells”. Also, the LC3-II levels result with LC3-II [1] is “time dependent and pronounced increase in LC3-II levels”.
